Reference: PubChem BioAssay (NCI)
Values joined by “and” are separate entries in the source; they are usually repeats but may differ in a detail not shown here. Identical values can stand only once.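 Step 1: Grow cells in 96-well plates. Step 2: Expose to compound for 48 hours at 5 concentrations. Step 3: Interpolate endpoints linearly; if unreached, use highest concentration. GI50 is the concentration that inhibits growth by half. The concentration for full growth arrest is given as TGI.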

What was measured:
Assay in all cases: inhibition of tumour cell growth, NCI panel, 48 h
DU-145 prostate = tested on: DU-145 prostate
MDA-MB-435 = tested on: MDA-MB-435
HT29 colon = tested on: HT29 colon
SNB-75 CNS = tested on: SNB-75 CNS
HCT-116 colon = tested on: HCT-116 colon
SR leukemia = tested on: SR leukemia
M14 melanoma = tested on: M14 melanoma
UACC-62 melanoma = tested on: UACC-62 melanoma
COLO 205 colon = tested on: COLO 205 colon
KM12 colon = tested on: KM12 colon

Structure (SMILES) | GI50 (DU-145 prostate) | TGI (DU-145 prostate) | GI50 (MDA-MB-435) | TGI (MDA-MB-435) | GI50 (HT29 colon) | TGI (HT29 colon) | GI50 (SNB-75 CNS) | TGI (SNB-75 CNS) | GI50 (HCT-116 colon) | TGI (HCT-116 colon) | GI50 (SR leukemia) | TGI (SR leukemia) | GI50 (M14 melanoma) | TGI (M14 melanoma) | GI50 (UACC-62 melanoma) | TGI (UACC-62 melanoma) | GI50 (COLO 205 colon) | TGI (COLO 205 colon) | GI50 (KM12 colon) | TGI (KM12 colon)
CC(C)C[CH2][Ge]([CH2]CC(C)C)([CH2]CC(C)C)[CH2]CC(C)C | > 100 µM | > 100 µM | > 100 µM | > 100 µM | > 100 µM | > 100 µM | > 100 µM | > 100 µM | > 100 µM | > 100 µM | > 100 µM | > 100 µM | > 100 µM | > 100 µM | > 100 µM | > 100 µM | > 100 µM | > 100 µM | > 100 µM | > 100 µM
COc1ccc(/C=N\NC(=O)c2ccc3nc(-c4ccc(Cl)cc4)[nH]c3c2)cc1 | 1.98 µM | 4.61 µM | 3.11 µM | 9.84 µM | 3.09 µM | 22.1 µM | 1.53 µM | 4.58 µM | 2.14 µM | 5.12 µM | 2.87 µM | 15.4 µM | 2.41 µM | 7.76 µM | 1.94 µM | 4.47 µM | 1.94 µM | 5.43 µM | 3.03 µM | 9.58 µM
O=C(c1ccco1)c1nc2cc(C(F)(F)F)ccc2[n+]([O-])c1C(F)(F)F | 61.7 µM | > 100 µM | 37 µM | > 100 µM | 33.6 µM | > 100 µM | 23 µM | 90.9 µM | 38.5 µM | > 100 µM | 41.4 µM | > 100 µM | 43.8 µM | > 100 µM | 45.9 µM | > 100 µM | 43.8 µM | > 100 µM | 17.4 µM | > 100 µM
COc1ccc2c(c1)[nH]c(=O)c1c3cc(OC)c(OC)cc3cn21 | < 0.01 µM | 0.0594 µM | < 0.01 µM | < 0.01 µM | < 0.01 µM | – | < 0.01 µM | 19.7 µM | < 0.01 µM | 1.19 µM | < 0.01 µM | 0.0961 µM | < 0.01 µM | 11.8 µM | < 0.01 µM | 21 µM | < 0.01 µM | 0.0635 µM | < 0.01 µM | 0.292 µM
CCOC(=O)c1ccccc1SC(C[N+](=O)[O-])c1ccccc1 (centres undefined) | 5.91 µM | 18.4 µM | 2.91 µM | 11.4 µM | 2.55 µM | 5.72 µM | 12.7 µM | 41.6 µM | 1.46 µM | 2.98 µM | 2.99 µM | 8.97 µM | 2.01 µM | 4.43 µM | 13.3 µM | 27.1 µM | 3.6 µM | 13 µM | 3.21 µM | 10.4 µM
CC[C@H](C)[C@H](NC(=O)NC(C)(C)C)C(=O)N(C)[C@H](C[C@@H](OC(C)=O)c1nc(C(=O)N[C@@H](Cc2ccccc2)C[C@H](C)C(=O)OC)cs1)C(C)C | 0.648 µM | > 6.3 µM | 0.0884 µM | 0.486 µM | 0.324 µM | > 8.91 µM | 0.293 µM | > 25 µM | 0.417 µM | > 25 µM | 0.141 µM | > 11.4 µM | 0.476 µM | 2.08 µM | 0.172 µM | > 25 µM | 0.446 µM | 1.12 µM | 0.682 µM | > 25 µM
CCCCCCCCCCC[C@@H](C[C@H]1OC(=O)[C@H]1CCCCCC)OC(=O)[C@@H](CC(C)C)NC=O | 16.7 µM | > 100 µM | 5.77 µM | 60.3 µM | 3.18 µM | 35.6 µM | 2.55 µM | 12.6 µM | 3.14 µM | 19.3 µM | 3.52 µM | 42.9 µM | 6.1 µM | 87 µM | 4.95 µM | 25.2 µM | 11.6 µM | 32.1 µM | 3.92 µM | 34.6 µM
CN1CCN(c2ccc3nc(-c4[nH]ncc4Nc4ncnc5c4OCCCN5)[nH]c3c2)CC1 | < 0.0118 µM | 0.482 µM | < 0.01 µM | 0.081 µM | < 0.0126 µM | 0.1 µM | < 0.01 µM | 0.0177 µM | < 0.01 µM | 1.09 µM | < 0.01 µM | – | < 0.0115 µM | 0.0706 µM | 0.0103 µM | 0.0529 µM | < 0.01 µM | 0.0157 µM | < 0.0105 µM | 0.109 µM
CC#CC#C/C=C1\C=CC2(OC=CC2OC(C)=O)O1 (centres undefined) | – | 37.7 µM | – | > 100 µM | – | 34.8 µM and 55.9 µM | – | > 100 µM and 95.9 µM | 39.8 µM and 17.3 µM | > 100 µM and 33.1 µM | – | 89.6 µM and > 94.5 µM | – | > 100 µM and 37.9 µM | – | 52.3 µM and 33.2 µM | – | 28.2 µM and 33.3 µM | – | 63.7 µM and 54.8 µM
CCOC(=O)Cn1c(-c2nonc2NC(=O)c2ccccc2F)nc2ccccc21 | 4.96 µM | > 100 µM | 2.25 µM | > 100 µM | 0.721 µM | > 100 µM | 4.29 µM | 46 µM | 0.434 µM | > 100 µM | 0.411 µM | > 100 µM | 74.1 µM | > 100 µM | 5.86 µM | > 100 µM | > 35.6 µM | > 100 µM | 1.93 µM | > 100 µM
O=C1NC(=O)[C@@H](c2c[nH]c3ccccc23)[C@@H]1c1c[nH]c2ccccc12 | > 25 µM | > 25 µM | > 25 µM | > 25 µM | > 25 µM | > 25 µM | > 25 µM | > 25 µM | > 25 µM | > 25 µM | > 25 µM | > 25 µM | > 25 µM | > 25 µM | > 25 µM | > 25 µM | > 25 µM | > 25 µM | > 25 µM | > 25 µM
CCCCCCCCCCCC1=NC(C)(C)CN1CC(C)O (centres undefined) | 11.7 µM | 24 µM | 2.05 µM | 4.91 µM | 1.43 µM | 2.86 µM | 9.26 µM | 21.3 µM | 2.06 µM | 4.9 µM | 1.47 µM | 3.75 µM | 1.62 µM | 3.1 µM | 1.78 µM | 3.47 µM | 1.68 µM | 3.05 µM | 2.25 µM | 4.84 µM
C[C@@H](Oc1cc(-n2cnc3ccc(OCC4CCN(C)CC4)cc32)sc1C(N)=O)c1ccccc1Cl | 0.0528 µM | 0.141 µM | 0.0126 µM | 0.0643 µM | 0.0108 µM | 2.68 µM | 0.0898 µM | 1.81 µM | 0.0617 µM | 3.05 µM | 0.0448 µM | 0.697 µM | 0.0561 µM | 3.12 µM | 0.0957 µM | 4.07 µM | 0.0165 µM | 0.631 µM | 0.0507 µM | 2.73 µM
O=C(NO)c1ccc(Cn2c(=O)n(-c3ccccc3)c(=O)c3ccccc32)cc1 | 0.773 µM | > 100 µM | 0.531 µM | 1.77 µM | 1.83 µM | 47.9 µM | 1.88 µM | 5.35 µM | 0.324 µM | 0.898 µM | 1.68 µM | > 100 µM | 0.539 µM | 2.09 µM | 0.482 µM | 2.16 µM | 0.356 µM | 1.39 µM | 1.11 µM | 2.73 µM
NC(=O)c1sc(-n2cnc3ccc(C(F)(F)F)cc32)cc1OCc1ccccc1Br | 0.942 µM | 3.89 µM | 0.636 µM | 1.78 µM | 0.858 µM | > 25 µM | 6.11 µM | > 25 µM | 1.43 µM | > 25 µM | 0.907 µM | > 25 µM | 1.89 µM | > 25 µM | 1.38 µM | 17.9 µM | 0.802 µM | 3.44 µM | 0.723 µM | 2.87 µM
COc1ccc(C(=O)/C=C/c2cc(-c3ccc4c(c3)OCO4)n[nH]2)cc1OC | 1.87 µM | 4.27 µM | 3.03 µM | 10 µM | 2.98 µM | 11.3 µM | 1.98 µM | 7.57 µM | 2.43 µM | 7.99 µM | 1.27 µM | 6.48 µM | 6.36 µM | 21.4 µM | 4.1 µM | 14.8 µM | 3.84 µM | 14 µM | 2.86 µM | 9.48 µM
COc1cc2cnc(-c3ccccc3)cc2cc1OC | – | > 100 µM | – | 67.3 µM | – | 45.5 µM | – | > 100 µM | – | > 100 µM | – | 45.8 µM | – | > 100 µM | – | 23.4 µM | – | 58.5 µM | – | 61.2 µM
CCCCCCCCNC(C)C(O)c1ccc(SC(C)C)cc1 (centres undefined) | 1.86 µM | 3.27 µM | 1.69 µM | 3.21 µM | 0.654 µM | 1.91 µM | 1.72 µM | 3.26 µM | 1.59 µM | 3.11 µM | 1.99 µM | 5.71 µM | 1.72 µM | 3.26 µM | 1.53 µM | 2.95 µM | 1.62 µM | 3 µM | 1.76 µM | 3.18 µM
